Laboratory results published in the supplement of paper PMC10307832.

Assays:
Assay in all cases: relative viability (nuclei count vs DMSO), 5 days (fraction); higher = more cells survive
[1] = test system: NCI-H2085
Method in brief: (§1)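 Dosing by pin tool came one day after lung cancer cell lines were seeded in 1536-well plates, using either one drug or a fixed anchor-drug dose plus five library-drug doses (not always all listed) in √10 steps. After 5 days, nuclei were counted on 4× images. Relative viability is treated-well nuclei count divided by vehicle-well nuclei count, and values are medians of duplicate plates.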

[2] = test system: HCC-44
Method in brief: as §1

[3] = test system: EKVX
Method in brief: as §1

[4] = test system: NCI-H1993
Method in brief: as §1

[5] = test system: NCI-H2126
Method in brief: as §1

[6] = test system: NCI-H1623
Method in brief: as §1

[7] = test system: ABC-1
Method in brief: as §1

[8] = test system: RERF-LC-KJ
Method in brief: as §1

[9] = test system: A549
Method in brief: as §1

With Nc1ccn([C@@H]2O[C@H](CO)[C@@H](O)[C@@H]2O)c(=O)n1 [Cytarabine] + CCNC(=O)c1noc(-c2cc(C(C)C)c(O)cc2O)c1-c1ccc(CN2CCOCC2)cc1 [Luminespib] (partner 0.01 µM) the relative viability ([1]; first compound 0.005 µM) was 0.426, the relative viability ([1]; first compound 0.01581 µM) was 0.459 and the relative viability ([1]; first compound 0.05 µM) was 0.455. It also gave a relative viability ([1]; first compound 0.1581 µM) of 0.415, a relative viability ([1]; first compound 0.5 µM) of 0.339 and a relative viability ([2]; first compound 0.005 µM) of 0.949. It also gave a relative viability ([2]; first compound 0.01581 µM) of 1.05, a relative viability ([2]; first compound 0.05 µM) of 0.403 and a relative viability ([2]; first compound 0.1581 µM) of 0.257. For the same molecule, the relative viability ([2]; first compound 0.5 µM) was 0.185, the relative viability ([3]; first compound 0.005 µM) was 0.918 and the relative viability ([3]; first compound 0.01581 µM) was 0.743. It also gave a relative viability ([3]; first compound 0.05 µM) of 0.736, a relative viability ([3]; first compound 0.1581 µM) of 0.287 and a relative viability ([3]; first compound 0.5 µM) of 0.186. For the same molecule, the relative viability ([4]; first compound 0.005 µM) was 0.964, the relative viability ([4]; first compound 0.01581 µM) was 0.706 and the relative viability ([4]; first compound 0.05 µM) was 0.695. The relative viability ([4]; first compound 0.1581 µM) was 0.512, the relative viability ([4]; first compound 0.5 µM) was 0.525 and the relative viability ([5]; first compound 0.005 µM) was 0.789. It also gave a relative viability ([5]; first compound 0.01581 µM) of 0.86, a relative viability ([5]; first compound 0.05 µM) of 0.671 and a relative viability ([5]; first compound 0.1581 µM) of 0.53. For the same molecule, the relative viability ([5]; first compound 0.5 µM) was 0.427, the relative viability ([6]; first compound 0.005 µM) was 0.321 and the relative viability ([6]; first compound 0.01581 µM) was 0.361. For the same molecule, the relative viability ([6]; first compound 0.05 µM) was 0.316, the relative viability ([6]; first compound 0.1581 µM) was 0.232 and the relative viability ([6]; first compound 0.5 µM) was 0.234. For the same molecule, the relative viability ([7]; first compound 0.005 µM) was 0.732, the relative viability ([7]; first compound 0.01581 µM) was 0.624 and the relative viability ([7]; first compound 0.05 µM) was 0.712. It also gave a relative viability ([7]; first compound 0.1581 µM) of 0.381, a relative viability ([7]; first compound 0.5 µM) of 0.281 and a relative viability ([8]; first compound 0.005 µM) of 0.968. For the same molecule, the relative viability ([8]; first compound 0.01581 µM) was 1.04, the relative viability ([8]; first compound 0.05 µM) was 0.977 and the relative viability ([8]; first compound 0.1581 µM) was 0.38. It also gave a relative viability ([8]; first compound 0.5 µM) of 0.416.
With Nc1ccn([C@@H]2O[C@H](CO)[C@@H](O)[C@@H]2O)c(=O)n1 [Cytarabine] + N=C(N)NC(=N)NCCc1ccccc1 [Phenformin] (partner 250 µM) the relative viability ([1]; first compound 0.005 µM) was 0.746, the relative viability ([1]; first compound 0.01581 µM) was 0.67 and the relative viability ([1]; first compound 0.05 µM) was 0.757. The relative viability ([1]; first compound 0.1581 µM) was 0.413, the relative viability ([1]; first compound 0.5 µM) was 0.362 and the relative viability ([9]; first compound 0.005 µM) was 0.104. The relative viability ([9]; first compound 0.01581 µM) was 0.127, the relative viability ([9]; first compound 0.05 µM) was 0.106 and the relative viability ([9]; first compound 0.1581 µM) was 0.0512. For the same molecule, the relative viability ([9]; first compound 0.5 µM) was 0.0301, the relative viability ([2]; first compound 0.005 µM) was 0.161 and the relative viability ([2]; first compound 0.01581 µM) was 0.15. It also gave a relative viability ([2]; first compound 0.05 µM) of 0.142, a relative viability ([2]; first compound 0.1581 µM) of 0.113 and a relative viability ([2]; first compound 0.5 µM) of 0.108. The relative viability ([3]; first compound 0.005 µM) was 0.217, the relative viability ([3]; first compound 0.01581 µM) was 0.192 and the relative viability ([3]; first compound 0.05 µM) was 0.172. For the same molecule, the relative viability ([3]; first compound 0.1581 µM) was 0.211, the relative viability ([3]; first compound 0.5 µM) was 0.207 and the relative viability ([4]; first compound 0.005 µM) was 0.588. It also gave a relative viability ([4]; first compound 0.01581 µM) of 0.483, a relative viability ([4]; first compound 0.05 µM) of 0.529 and a relative viability ([4]; first compound 0.1581 µM) of 0.515. It also gave a relative viability ([4]; first compound 0.5 µM) of 0.422, a relative viability ([5]; first compound 0.005 µM) of 0.472 and a relative viability ([5]; first compound 0.01581 µM) of 0.464. The relative viability ([5]; first compound 0.05 µM) was 0.421, the relative viability ([5]; first compound 0.1581 µM) was 0.277 and the relative viability ([5]; first compound 0.5 µM) was 0.271. It also gave a relative viability ([6]; first compound 0.005 µM) of 0.432, a relative viability ([6]; first compound 0.01581 µM) of 0.396 and a relative viability ([6]; first compound 0.05 µM) of 0.357. It also gave a relative viability ([6]; first compound 0.1581 µM) of 0.402, a relative viability ([6]; first compound 0.5 µM) of 0.431 and a relative viability ([7]; first compound 0.005 µM) of 0.238. For the same molecule, the relative viability ([7]; first compound 0.01581 µM) was 0.211, the relative viability ([7]; first compound 0.05 µM) was 0.265 and the relative viability ([7]; first compound 0.1581 µM) was 0.223. The relative viability ([7]; first compound 0.5 µM) was 0.174, the relative viability ([8]; first compound 0.005 µM) was 0.381 and the relative viability ([8]; first compound 0.01581 µM) was 0.369. It also gave a relative viability ([8]; first compound 0.05 µM) of 0.308, a relative viability ([8]; first compound 0.1581 µM) of 0.298 and a relative viability ([8]; first compound 0.5 µM) of 0.274.
